Measured values published in patent US11497740B2, “Use of Jumonji C demethylase inhibitors for the treatment and prevention of chemotherapy resistance and radioresistance in cancer” (THE BOARD OF REGENTS OF THE UNIVERSITY OF TEXAS SYSTEM, priority 2016, dated 2022).

Columns and labels:
[1] = tested on: H1299 Parental xenografts; conditions: for final tumor burden (tumor weights) of combination / tumor growth inhibition of combination: combination with paclitaxel+carboplatin chemotherapy
Experimental: (§1) Animals were housed under standard, sterile conditions at UTSW animal facility. All experiments were carried out under approved IACUC protocols and followed UTSW animal care procedures. For tumor growth rate studies and docetaxel+cisplatin drug response comparisons, 6-8 week old female NOD/SCID mice were used. For all subsequent in vivo drug response studies, 6 week old female athymic nude mice were used (Charles River Labs, Jackson Labs). Experimental details are provided in supplemental information.
(§2) Parental and resistant NSCLC cell lines (1×10^6 cells in PBS or RPMI for H1299; 5×10^6 cells in PBS/matrigel for H1355 and HCC4017) were injected subcutaneously into the right flank of mice. Tumor growth was monitored by caliper measurements and tumor volume was calculated by 0.5×length×width^2). Treatment was started when tumors reached ˜150-200 mm3. Drug/Vehicle therapy was given to tumor volume matched pairs. Docetaxel (3 mg/kg) and cisplatin (3 mg/kg) were given i.p. once a week for 3 weeks. For JIB-04 studies, nude mice were randomized to receive either of 5, 20 or 50 mg/kg doses or vehicle, 3× per week for 2 weeks by gavage in 12.5% cremophor EL, 12.5% DMSO, aqueous suspension.

H1299 T18 xenografts = conditions: for final tumor weights vs vehicle: GSK-J4 100 mg/kg 10 days, JIB-04 50 mg/kg; for tumor volume vs vehicle: GSK-J4 100 mg/kg every day 10 days, JIB-04 5, 20 or 50 mg/kg 3x per week 2 weeks by gavage
Experimental: as §1, §2

[2] = tested on: H3K4me3 demethylase activity; assay: Histone demethylase activity in tumor lysates by ELISA (H3K4me3); assay type: in vivo; conditions: H1299 T18 xenografts, drug-treated vs vehicle
Source text: To evaluate whether the targeted KDM enzymatic activity was reduced in the JmjC inhibitor-treated tumors in vivo, the inventors measured histone demethylase activity in drug-treated and vehicle-control tumor lysates by ELISA. […] Altogether, the results confirmed reduction of the targeted KDM enzymatic activity with cytostatic/cytotoxic effects in JmjC inhibitor-treated chemoresistant xenografts.

H1299 T18 cells = assay: Microarray gene expression after 24 h treatment, H1299 T18 cells; assay type: cell-based, human; conditions: for expression difference of top up-regulated gene / gene expression changes (total probes): 24 h; for expression difference of top up-regulated gene / gene expression changes (total probes) / Illumina probes reversed in expression / genes reversed in expression: 0.2 μM JIB-04 or 1 μM GSK-J4; for gene expression changes (total probes): fold changes ≥1.5, P ≤0.05; for Illumina probes reversed in expression / genes reversed in expression: reversal of changes acquired with taxane-platin resistance
Experimental: Gene expression profiling was performed using Illumina HumanWG-6 V3 BeadArrays (for NSCLC patient tumors) or Illumina HumanHT-12 V4 BeadArrays (for cell lines and xenografts). […] Data were pre-processed using the R package mbcb for background correction (Ding et al., 2008), then log-transformed and quantile-normalized with the R package preprocessCore or using in-house MATRIX software ([…]). Microarray data can be found under GEO accession GSE77209. Log ratios, unpaired t-test p values and color-coded heat maps were obtained using MATRIX. For comparisons involving progressively resistant cell line series, analyses were performed using R package by fitting linear regression model on gene expression data against the log transformed IC50 values as measures of drug response. We fitted beta-uniform mixture model to a set of p-values using the R package ClassComparison. […] For xenograft data, differential gene expression analysis was performed by student's t-test. Using 35 gene signature, unsupervised hierarchical clustering (Eisen et al., 1998) was performed to separate neoadjuvant chemotherapy treated patients into two groups. Clustering was based on Euclidean distance matrix and maximum linkage method. Kaplan-Meier survival analysis and multivariate Cox regression were performed by R survival package and replotted using Graphpad Prism 6.00 (GraphPad Software, La Jolla, Calif. USA). R code is provided in […] report.

H1299 Parental cells = assay: Microarray gene expression after 24 h treatment, H1299 Parental cells; assay type: cell-based, human; conditions: 0.2 μM JIB-04 or 1 μM GSK-J4, fold changes ≥1.5, P ≤0.05
Experimental: Gene expression profiling was performed using Illumina HumanWG-6 V3 BeadArrays (for NSCLC patient tumors) or Illumina HumanHT-12 V4 BeadArrays (for cell lines and xenografts). Cell line and xenograft microarrays included biological replicates (Cell lines: 5 for parental, 3 for most resistant variant, 2 for each intermediate resistance time-point; Xenografts: 3 tumors each for parental and resistant group). Data were pre-processed using the R package mbcb for background correction (Ding et al., 2008), then log-transformed and quantile-normalized with the R package preprocessCore or using in-house MATRIX software (MicroArrayTRansformation In eXcel). Microarray data can be found under GEO accession GSE77209.
Log ratios, unpaired t-test p values and color-coded heat maps were obtained using MATRIX. For comparisons involving progressively resistant cell line series, analyses were performed using R package by fitting linear regression model on gene expression data against the log transformed IC50 values as measures of drug response. We fitted beta-uniform mixture model to a set of p-values using the R package ClassComparison. Genes with p-values below the FDR cutoff of 0.1 were considered statistically significant. For xenograft data, differential gene expression analysis was performed by student's t-test. […]

[3] = tested on: H1299 T18 chemo-resistant cells; assay: Colony formation, combination with paclitaxel+carboplatin; assay type: cell-based, human; conditions: positive ΔBliss
Experimental: All statistical tests including two-way ANOVA with Sidak's multiple comparisons test, one-way ANOVA with Dunnett's multiple comparisontest, post-test for linear trend and unpaired t-tests were performed using GraphPad Prism 6.00. P values are represented as *P<0.05, **P<0.01, ***P<0.001 and ****P<0.0001. For drug treatments, dose response curves and IC50 values were calculated using GraphPad Prism or in-house DIVISA (Database of InVItro Sensitivity Assays; L. Girard). For drug combination in colony formation, delta Bliss excess was calculated as shown previously (Wilson et al., 2014). Bliss expectation was calculated as A+B−(A×B), where A and B denote the fractional responses from drugs A and B given individually. The difference between Bliss expectation and observed response from combination of drugs A and B at the same doses is the delta Bliss excess.
400 cells were seeded per well in six well plates and treated with various drug concentrations the next day. After 2-3 weeks, colonies were stained with 0.5% crystal violet, 3% formaldehyde solution and counted both manually and automatically using Quantity One image analysis software (Bio-Rad).

[4] = from non-linear regression/exponential growth curves

Row | SMILES | tumor volume vs vehicle ([1]; GSK-J4 100 mg/kg every day 10 days, JIB-04 5, 20 or 50 mg/kg 3x per week 2 weeks by gavage) | final tumor burden (tumor weights) of combination [1] | tumor growth inhibition of combination [1] | change in tumor doubling time [1, 4] [%] | final tumor weights vs vehicle (H1299 T18 xenografts) | tumor volume vs vehicle (H1299 T18 xenografts) | increase in tumor doubling time (H1299 T18 xenografts; [4]) [%] | % Ki67+ cells in tumors (IHC) (H1299 T18 xenografts; mouse, in vivo) | cleaved caspase 3 staining in tumors (IHC) (H1299 T18 xenografts; mouse, in vivo) | H3K4me3 demethylase activity in tumor lysates [2] | expression difference of top up-regulated gene (H1299 T18 cells) [fold] | gene expression changes (total probes) (H1299 T18 cells) [probes] | top reversed down-regulated gene, fold change (down) (H1299 T18 cells; LEAP2 for JIB-04, TAF9B for GSK-J4) [fold] | top reversed up-regulated gene, fold change (up) (H1299 T18 cells; YPEL2 for JIB-04, BNIP3 for GSK-J4) [fold] | Illumina probes reversed in expression (H1299 T18 cells) | genes reversed in expression (H1299 T18 cells) [genes] | gene expression changes (total probes) (H1299 Parental cells) [probes] | colony formation in combination with paclitaxel+carboplatin [3] | final tumor weights vs vehicle ([1]; GSK-J4 100 mg/kg 10 days) | % γH2AX+ cells in tumors (IHC) (H1299 T18 xenografts; mouse, in vivo)
1 | Clc1ccc(N/N=C(\c2ccccc2)c2ccccn2)nc1 [JIB-04] | significantly reduced tumor burden | significant reduction in final tumor burden compared to either therapy alone | significantly greater tumor growth inhibition than single agents | < 25 | significant decrease in final tumor weights | greater percent reduction in final tumor volumes | 69 | reduction of % Ki67+ cells | focally increased cleaved caspase 3 staining | significantly inhibited | ~16 | 1469 | ~5 | ~16 | About 195 probes | 187 | 519 | synergistic inhibition of colony formation | – | –
2 | CCOC(=O)CCNc1cc(N2CCc3ccccc3CC2)nc(-c2ccccn2)n1 [GSK-J4] | – | significant reduction in final tumor burden compared to either therapy alone | significantly greater tumor growth inhibition than single agents | – | significant decrease in final tumor weights | significant reduction in average tumor volume | – | – | focally increased cleaved caspase 3 staining | without reducing H3K4me3 or H3K9me3 demethylase activity | ~25 | 710 | – | – | 110 probes | 108 | 224 | synergistic inhibition of colony formation | no significant drug-induced decrease | increased the % γH2AX+ cells
